One compound from article PMC10544575, “Inhibitory mechanism of vortioxetine on CYP450 enzymes in human and rat liver microsomes” (Frontiers in Pharmacology, 2023) can be followed below.

Entries after “also recorded” stand apart in the source; their conditions may differ.

Series [1] relates to CYP2C-1. Put plainly: IC50-shift experiment, CYP2C-1 in RLMs. It is filed as in vitro ADME, rat.
Series [2] relates to CYP3A. Put plainly: IC50-shift experiment, CYP3A in RLMs. The note with it: rat, rat liver microsomes, probe midazolam; for IC50 at 30 min: midazolam 3.5 μM. It counts as in vitro ADME.
Series [3] deals with CYP2C9 (Homo sapiens, UniProt P11712). Put plainly: Reversible inhibition kinetics (Lineweaver-Burk), CYP2C9 in HLMs. It is filed as in vitro ADME. Further details: 0.20 mg/mL HLMs; from tissue; host or cells: human liver microsomes. The note with it: losartan. The procedure:
(§1) The components of the incubation system were as follows: 0.20 mg/mL HLMs or 0.20 mg/mL RLMs, 0.1 M Tris-HCl, vortioxetine, and the probe substrates of each enzyme. In the study of Km’s (Michaelis–Menten constant) experiment, midazolam (1, 2, 5, 10, 20, 50 and 100 μM in HLMs and RLMs) corresponded to CYP3A4/3A; bupropion (10, 20, 50, 100, 200, 500, 1,000 and 2000 μM in HLMs; 1, 2, 5, 10, 20, 50, 100 and 200 μM in RLMs) corresponded to CYP2B6/2B; amodiaquine (5, 10, 20, 50, 100 and 200 μM in HLMs; 10, 20, 50, 100, 200, 500 μM in RLMs) corresponded to CYP2C8/CYP2C-1; losartan (1, 2, 5, 10, 20, 50, 100, 200 μM in HLMs; 10, 20, 50, 100, 200, 500 and 1,000 μM in RLMs) corresponded to CYP2C9/CYP2C-2; mephenytoin (20, 50, 100, 200, 500 and 1,000 μM in HLMs; 5, 10, 20, 50, 100, 200, 500 and 1,000 μM in RLMs) corresponded to CYP2C19/CYP2C-3; and dextromethorphan (1, 2, 5, 10, 20, 50 and 100 μM in HLMs and RLMs) corresponded to CYP2D6/CYP2D. After 5.0 min of preincubation in the shaking water bath, the reaction was started with the addition of 1.0 mM NADPH. The incubated temperature at 37°C for 30 min. After the incubation, the enzyme reaction was stopped by cooling at −80°C, and 200 μL of acetonitrile and 20 μL of internal standard diazepam (200 ng/mL) were added for protein precipitation. The solution was fully vortexed and centrifuged at 13,000 × rpm for 10 min, and the supernatant was collected for data analysis by UPLC-MS/MS.
(§2) The inhibitory mechanism of the inhibitor on the enzyme was generally used by different concentrations of the inhibitor against different concentrations of the probe substrate. The concentrations of the inhibitor and the concentrations of probe substrates in the experiment were estimated based on IC50 and Km values, respectively.
(§3) In HLMs, the concentrations of the substrates midazolam, bupropion, amodiaquine, losartan, mephenytoin, and dextromethorphan were 1, 2, 4, 8 μM; 10, 20, 40, 80 μM; 0.8, 1.5, 3, 6 μM; 2, 4, 8, 16 μM; 20, 45, 90, 180 μM; 2.5, 5, 10, 20 μM, respectively. Corresponding to the concentration of vortioxetine were 2, 4, 9, 18 μM; 2, 4, 8, 16 μM; 4, 8, 15, 30 μM; 5, 10, 25, 50 μM; 0.6, 1.2, 2.5, 5 μM; 4.5, 9, 18, 36 μM, respectively.
All experiments results were detected by UPLC-MS/MS, which equipped with a Waters Acquity UPLC system (Milford, MA, United States) and a Waters Xevo TQ-S triple quadrupole tandem mass spectrometer with an electrospray ionization source (Milford, MA, United States). The chromatographic separation was performed on a Waters ACQUITY UPLC BEH C18 column (2.1 × 50 mm, 1.7 μm, Waters Corp.) at 40°C. […]
(§4) IC50 values and enzyme kinetic parameters were calculated by Graphpad Prism 6.0 (GraphPad software Inc., CA, United States). […] Data for each experiment were expressed as mean ± SD (n = 3).

Series [4] concerns the target CYP2C19 (Homo sapiens, UniProt P33261). Put plainly: Reversible inhibition kinetics (Lineweaver-Burk), CYP2C19 in HLMs. It is filed as in vitro ADME. Further details: 0.20 mg/mL HLMs; from tissue; host or cells: human liver microsomes. The following applies: mephenytoin. The procedure: as §1, with “After 5.0 min of preincubation in the shaking water bath, the reaction was started with the addition of 1.0 mM NADPH. The incubated temperature at 37°C for 30 min. After the incubation, the enzyme reaction was stopped by cooling at −80°C, and 200 μL of acetonitrile and 20 μL of internal standard diazepam (200 ng/mL) were added for protein precipitation. The solution was fully vortexed and centrifuged at 13,000 × rpm for 10 min, and the supernatant was collected for data analysis by UPLC-MS/MS.” left out
All experiments results were detected by UPLC-MS/MS, which equipped with a Waters Acquity UPLC system (Milford, MA, United States) and a Waters Xevo TQ-S triple quadrupole tandem mass spectrometer with an electrospray ionization source (Milford, MA, United States). […]
as §4

Series [5] has as its target T1, CYP2C8 (Homo sapiens, UniProt P10632).
T1 sequence (P10632 1-490): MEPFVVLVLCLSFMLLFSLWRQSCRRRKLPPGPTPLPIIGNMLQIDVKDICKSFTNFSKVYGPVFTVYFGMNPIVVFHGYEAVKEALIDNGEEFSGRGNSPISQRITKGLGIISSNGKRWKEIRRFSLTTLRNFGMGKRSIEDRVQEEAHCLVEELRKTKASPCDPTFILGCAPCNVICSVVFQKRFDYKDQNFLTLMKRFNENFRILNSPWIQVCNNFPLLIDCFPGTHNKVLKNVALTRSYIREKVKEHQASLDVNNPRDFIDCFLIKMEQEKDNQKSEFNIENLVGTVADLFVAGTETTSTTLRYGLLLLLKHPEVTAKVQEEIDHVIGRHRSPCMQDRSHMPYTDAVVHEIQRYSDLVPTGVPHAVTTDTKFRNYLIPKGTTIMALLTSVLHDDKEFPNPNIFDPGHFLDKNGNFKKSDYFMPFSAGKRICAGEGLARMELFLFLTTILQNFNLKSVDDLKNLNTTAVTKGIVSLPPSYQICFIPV
Put plainly: Reversible inhibition kinetics (Lineweaver-Burk), CYP2C8 in HLMs. Further details: 0.20 mg/mL HLMs or 0.20 mg/mL RLMs; from tissue; host or cells: human liver microsomes. It is filed as in vitro ADME. The method, then: as §1, §2, §3
All experiments results were detected by UPLC-MS/MS, which equipped with a Waters Acquity UPLC system (Milford, MA, United States) and a Waters Xevo TQ-S triple quadrupole tandem mass spectrometer with an electrospray ionization source (Milford, MA, United States). The chromatographic separation was performed on a Waters ACQUITY UPLC BEH C18 column (2.1 × 50 mm, 1.7 μm, Waters Corp.) at 40°C. The mobile phase was consisted of acetonitrile (A) and 0.1% formic acid in water (B). The gradient elution at a flow rate of 0.4 mL/min was conducted as follows: 0–0.5 min, 10% A; 0.5–1.0 min, 10%–90% A; 1.0–2.0 min, 90% A; 2.0–2.1 min, 90%–10% A, and 2.1–3.0 min, 10% A. The relevant analysis parameters were shown in Table 1.
IC50 values and enzyme kinetic parameters were calculated by Graphpad Prism 6.0 (GraphPad software Inc., CA, United States). Lineweaver-Burk Plot was used to determine inhibitor patterns. Dixon plots of Ki values were obtained from the slope of the nonlinear regression line in the Lineweaver-Burk plot as a function of different inhibitor concentrations, while secondary plots for αKi were obtained from the y-intercept of the nonlinear regression line in Lineweaver-Burk Plot versus concentration of different inhibitors. Data for each experiment were expressed as mean ± SD (n = 3).

Chain of CYP2C9 (P11712 whole entry): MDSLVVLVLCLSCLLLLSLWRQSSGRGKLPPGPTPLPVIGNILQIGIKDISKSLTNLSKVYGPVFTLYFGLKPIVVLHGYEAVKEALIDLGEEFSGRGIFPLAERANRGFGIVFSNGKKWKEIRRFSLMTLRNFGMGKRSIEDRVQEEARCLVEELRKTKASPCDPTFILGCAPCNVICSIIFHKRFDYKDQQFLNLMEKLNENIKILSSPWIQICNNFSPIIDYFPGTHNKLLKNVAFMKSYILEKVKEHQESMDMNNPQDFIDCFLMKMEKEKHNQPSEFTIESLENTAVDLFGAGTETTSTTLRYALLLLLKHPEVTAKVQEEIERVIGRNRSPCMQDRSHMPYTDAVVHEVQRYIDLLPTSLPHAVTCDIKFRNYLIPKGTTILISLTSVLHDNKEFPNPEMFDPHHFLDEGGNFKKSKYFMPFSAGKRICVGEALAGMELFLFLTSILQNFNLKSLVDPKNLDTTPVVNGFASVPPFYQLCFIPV
Chain of CYP2C19 (P33261 whole entry): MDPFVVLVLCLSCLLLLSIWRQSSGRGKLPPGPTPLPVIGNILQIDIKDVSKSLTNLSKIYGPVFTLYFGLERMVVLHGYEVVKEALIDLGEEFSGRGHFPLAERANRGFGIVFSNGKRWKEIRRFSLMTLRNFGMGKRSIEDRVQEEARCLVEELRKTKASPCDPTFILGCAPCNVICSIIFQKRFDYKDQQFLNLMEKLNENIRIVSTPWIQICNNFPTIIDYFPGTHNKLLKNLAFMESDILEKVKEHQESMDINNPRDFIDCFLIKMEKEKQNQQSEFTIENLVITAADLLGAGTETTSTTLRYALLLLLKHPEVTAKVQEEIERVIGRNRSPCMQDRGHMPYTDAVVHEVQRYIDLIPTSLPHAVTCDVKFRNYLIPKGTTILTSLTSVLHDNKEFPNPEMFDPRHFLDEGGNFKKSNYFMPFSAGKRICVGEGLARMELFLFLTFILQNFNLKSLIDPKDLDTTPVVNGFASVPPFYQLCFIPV

For `Cc1ccc(Sc2ccccc2N2CCNCC2)c(C)c1` [vortioxetine], the IC50 in series [1] (30 min preincubation without NADPH, amodiaquine 20 μM) was determined as 19.8 µM. Further, the IC50 at 30 min in series [1] (rat, rat liver microsomes, probe amodiaquine, 30 min preincubation without NADPH, amodiaquine 20 μM) was 18.3 µM; in series [2] (30 min preincubation with 1.0 mM NADPH), 16.4 µM; in series [2] (30 min preincubation without NADPH) it was 20.9 µM. Moreover, the IC50 shift at 30 min in series [1] (rat, rat liver microsomes, probe amodiaquine, ratio IC50 (−) NADPH to IC50 (+) NADPH, read-out: IC50 fold shift) came to 1.98; in series [2] (ratio IC50 (−) NADPH to IC50 (+) NADPH, read-out: IC50 fold shift), 1.28. Also, the Ki worked out at 4.17 µM in series [3], 2170 nM in series [4] and 6.96 µM in series [5] (amodiaquine). Further, the α in series [3] amounted to 15.94; in series [5] (amodiaquine), 1.94. Also, the Inhibition type result in series [3] (Lineweaver-Burk plot) is recorded as “mixed inhibition”; in series [4] (Lineweaver-Burk plot), “competitively inhibited; also recorded: competitive inhibition”; in series [5] (amodiaquine, Lineweaver-Burk plot), “noncompetitive inhibition”. Further, the αKi is 66.5 µM in series [3] (secondary plot of y-intercepts) and 13.48 µM in series [5] (amodiaquine, secondary plot of y-intercepts). In addition, in series [5] (human, human liver microsomes, probe amodiaquine), the affinity, expressed as Ki at 30 min, was 2960 nM.
